Columns and labels:
human GPR30 = target: T1, human GPR30 (Homo sapiens, UniProt Q99527, P21A/Q20H); test: Intracellular calcium ion level-increasing activity using FLIPR, human GPR30 cells; assay type: cell-based; settings: human GPR30-expressed CHO cells, Fluo 3-AM, up to 100 μM (FIGS. 1-3, 7)
T1 construct: expressed in transfected cells; host or cells: CHO/dhfr- cells (ATCC), clone #19
Source text: (§1) The cDNA (SEQ ID NO: 5) for human GPR30 was cloned by known PCR techniques to incorporate the cDNA into pAKKO1.11H expression vector (Biochemica et Biophysica Acta, 1219 (1994) 251-259). The structure of plasmid was verified by restriction enzyme digestion and sequencing analysis and a correctly constructed plasmid was used as CHO cell expression plasmid pAK-hGPR30.
This plasmid pAK-hGPR30 was transfected to CHO/dhfr− cells (American Type Culture Collection) by electroporation. First, plasmid pAK-hGPR30 was digested with restriction enzyme Ahd I. A cuvette for electroporation received 5×10^6 CHO/dhfr− cells suspended in 500 μl of PBS and 5 μg of plasmid DNA dissolved in 10 μl of TE buffer. The mixture was settled on ice for 5 minutes and subjected to electroporation under conditions of […] and 960 μF. After settling on ice for 5 minutes, the total volume of CHO/dhfr− cells were plated in a T75 flask and incubated in nucleic acid-containing MEMalpha medium (Invitrogen, Inc.) supplemented with 10% fetal bovine serum (BIO WHITTAKER, Inc.) at 37° C. in 5% carbon dioxide for one day. The cells were dispersed by trypsin treatment, recovered from the flask and plated in a 96-well plate by 200 counts or 500 counts per well. Incubation was initiated in nucleic acid-free MEMalpha medium (Invitrogen, Inc.) supplemented with 10% dialyzed fetal bovine serum (JRH BIOSCIENCES, Inc.) and 50 μg/ml gentamicin at 37° C. in 5% carbon dioxide. The plasmid-transfected transformants of CHO cells grew in the medium but the non-transfected cells gradually died. On Days 8 to 10 after the incubation, one colony that kept growing in one well of the 96-well plate were isolated and approximately 48 colonies of the transformants of CHO cells were selected. From each cell selected, RNA was recovered using a commercially available kit for RNA isolation. Subsequently, transformant CHO cell #19 clone highly expressing human GPR30 was selected by known TaqMan RT-PCR (hereinafter briefly referred to as human GPR30 cell). […]

rat GPR30 = target: T2, rat GPR30 (Rattus norvegicus, UniProt O08878, S320N); test: Intracellular calcium ion level-increasing activity using FLIPR, rat GPR30 cells; assay type: cell-based; settings: rat GPR30-expressed CHO cells, Fluo 3-AM, up to 100 μM (FIGS. 4-6, 8)
T2 construct: expressed in transfected cells; host or cells: CHO/dhfr- cells (ATCC), clone #6
T2 sequence (O08878 1-375 S320N): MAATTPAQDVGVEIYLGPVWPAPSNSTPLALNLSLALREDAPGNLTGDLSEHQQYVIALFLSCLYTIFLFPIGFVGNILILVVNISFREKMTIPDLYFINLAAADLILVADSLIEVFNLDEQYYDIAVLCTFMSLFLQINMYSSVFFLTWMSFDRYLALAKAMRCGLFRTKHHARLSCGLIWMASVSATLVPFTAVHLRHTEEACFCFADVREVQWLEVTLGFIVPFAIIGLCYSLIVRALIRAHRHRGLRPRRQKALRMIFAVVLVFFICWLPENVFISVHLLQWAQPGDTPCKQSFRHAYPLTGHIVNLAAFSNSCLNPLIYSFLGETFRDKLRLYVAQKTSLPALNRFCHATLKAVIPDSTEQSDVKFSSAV
Source text: as §1, with “6)” for “5)”, “rat” for “human”, “pAK-rGPR30.” for “pAK-hGPR30.”
In accordance with the procedures described in REFERENCE EXAMPLE 1, this plasmid pAK-rGPR30 was transfected to CHO/dhfr− cells (American Type Culture Collection) by electroporation and transformant CHO cell #6 clone highly expressing rat GPR30 was selected was selected (hereinafter briefly referred to as rat GPR30 cell).
(§2) The human GPR30 and rat GPR30 cells obtained in REFERENCE EXAMPLES above were suspended in medium (10% dFBS-DMEM) in 15×10^4 cells/ml, respectively. A 200 μl aliquot of the suspension was plated in each well of a 96-well plate (Black plate clear bottom, Coster, Inc.) for FLIPR, using an 8 channel pipette (3.0×10^4 cells/200 μl/well), and cultured at 37° C. overnight in a 5% CO2 incubator, which was provided for use (hereinafter referred to as the cell plate). Then, 20 ml of H/HBSS (9.8 g of Nissui HANKS 2 (Nissui Seiyaku Co., Ltd.), 0.35 g of sodium hydrogencarbonate, 4.77 g of HEPES; after adjusting the pH to 7.4 with 6 M sodium hydroxide solution, sterilization through a filter followed), 200 μl of 250 mM Probenecid and 200 μl of fetal bovine serum (FBS) were mixed. […]
(§3) All trans-retinol, all trans-retinal or 4-HPR (4-hydroxyphenylretinamide) was added to and diluted with 150 μl of H/HBSS containing 2.5 mM Probenecid and 0.1% CHAPS or H/HBSS containing 2.5 mM Probenecid, 0.1% CHAPS and 0.2% BSA; the dilution was transferred to a 96-well plate (V-Bottom Plate, Coster, Inc.) for FLIPR (hereinafter, the sample plate). […] Changes in fluorescence intensity were measured with passage of time to determine the intracellular calcium ion level-increasing activities.

GPR30 = test: Intracellular calcium increase in GPR30-expressed CHO cells (summary statement); assay type: cell-based; settings: stimulation with the compound
Protocol: as §2, §3

nuclear receptor PAR = settings: J. Biol. Chem. 271 (37), 22441-22446, 1996; cited from earlier work
various cancer cells = settings: J. Biol. Chem. 271 (37), 22441-22446, 1996; cited from earlier work

T1 sequence (Q99527 whole entry Q20H/P21A): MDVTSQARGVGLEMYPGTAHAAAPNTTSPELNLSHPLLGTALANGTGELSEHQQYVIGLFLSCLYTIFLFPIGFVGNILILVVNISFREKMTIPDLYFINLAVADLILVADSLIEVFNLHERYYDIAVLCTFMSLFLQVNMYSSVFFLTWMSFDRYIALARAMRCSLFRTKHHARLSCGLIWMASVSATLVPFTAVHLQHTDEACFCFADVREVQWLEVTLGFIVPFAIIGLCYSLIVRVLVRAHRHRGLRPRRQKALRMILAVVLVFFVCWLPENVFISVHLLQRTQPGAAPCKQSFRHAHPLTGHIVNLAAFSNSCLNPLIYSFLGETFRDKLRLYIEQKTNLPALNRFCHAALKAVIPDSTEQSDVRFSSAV

| Compound | increase in the intracellular calcium ion concentration (change in fluorescence intensity) (human GPR30) | increase in the intracellular calcium ion concentration (change in fluorescence intensity) (rat GPR30) | intracellular calcium in the GPR30-expressed CHO cells (GPR30) | agonist for nuclear receptor (nuclear receptor PAR) | apoptosis of various cancer cells (various cancer cells) |
| --- | --- | --- | --- | --- | --- |
| CC1=C(/C=C/C(C)=C/C=C/C(C)=C/CO)C(C)(C)CCC1 [all trans-retinol] | induced an increase in the intracellular calcium ion concentration in a manner dependent on the concentration | induced an increase in the intracellular calcium ion concentration in a manner dependent on the concentration | specifically increased | – | – |
| CC1=C(/C=C/C(C)=C/C=C/C(C)=C/C(=O)Nc2ccc(O)cc2)C(C)(C)CCC1 [4-HPR, 4-hydroxyphenylretinamide] | induced an increase in the intracellular calcium ion concentration in a manner dependent on the concentration | induced an increase in the intracellular calcium ion concentration in a manner dependent on the concentration | specifically increased | is an agonist for nuclear receptor PAR | induces apoptosis of various cancer cells |
| CC1=C(/C=C/C(C)=C/C=C/C(C)=C/C=O)C(C)(C)CCC1 [all trans-retinal] | induced an increase in the intracellular calcium ion concentration in a manner dependent on the concentration | induced an increase in the intracellular calcium ion concentration in a manner dependent on the concentration | – | – | – |
